In ChEMBL document CHEMBL1201862, “PubChem BioAssay data set” (2004):
Activity calls are given as the source filed them.

What was measured:
[1] = Vero E6 cell cytotoxicity, dose response, cytotoxicity control for non-replicating M. tuberculosis project, secondary assay (AID 492998); format: functional, VeroE6; conditions: Vero C1008
[2] = NIH-3T3 fibroblast cytotoxicity, dose response, cytotoxicity control, cell-based, fluorescence, Alamar Blue, secondary assay (AID 2327); format: functional;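 also: NIH-3T3 mouse fibroblasts cultured with fluconazole at 8 µg/mL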
[3] = C. albicans growth with fluconazole, confirmation, fluorescence, retest (AID 2467); format: functional, cell-based
Mucolipin-3 = molecular target: T1, Mucolipin-3 (Homo sapiens, UniProt Q8TDD5); test: Dose response cell-based high-throughput screening assay for agonists of the transient receptor potential channel ML3 (TRPML3). [Related pubchem assays: 1526, 1424, 1448 ]; format: functional
T1 sequence (Q8TDD5 whole entry): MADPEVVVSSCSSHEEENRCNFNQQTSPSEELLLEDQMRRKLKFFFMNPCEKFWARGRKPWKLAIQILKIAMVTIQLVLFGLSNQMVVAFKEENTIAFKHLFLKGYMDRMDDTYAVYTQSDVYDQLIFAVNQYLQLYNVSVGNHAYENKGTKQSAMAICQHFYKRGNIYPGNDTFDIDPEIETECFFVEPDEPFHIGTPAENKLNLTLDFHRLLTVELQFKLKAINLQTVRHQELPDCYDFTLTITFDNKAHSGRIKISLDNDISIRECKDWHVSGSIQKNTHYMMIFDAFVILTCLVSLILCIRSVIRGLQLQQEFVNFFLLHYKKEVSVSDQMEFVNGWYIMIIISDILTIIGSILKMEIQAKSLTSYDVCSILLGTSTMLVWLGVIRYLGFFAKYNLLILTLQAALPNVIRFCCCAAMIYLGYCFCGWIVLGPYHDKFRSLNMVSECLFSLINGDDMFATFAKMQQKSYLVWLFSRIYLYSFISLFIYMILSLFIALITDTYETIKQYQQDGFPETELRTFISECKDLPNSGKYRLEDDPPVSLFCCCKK

Ion channel NompC = Ion channel NompC (Danio rerio, UniProt Q7T1G6); test: Fluorescence counterscreen assay for TRPML3 agonists: dose response cell-based high-throughput screening assay to identify agonists of the transient receptor potential channel N1 (TRPN1). [Related pubchem assays: 1526, 1424, 1448 ]; format: functional
Sequence of Ion channel NompC (Q7T1G6 whole entry): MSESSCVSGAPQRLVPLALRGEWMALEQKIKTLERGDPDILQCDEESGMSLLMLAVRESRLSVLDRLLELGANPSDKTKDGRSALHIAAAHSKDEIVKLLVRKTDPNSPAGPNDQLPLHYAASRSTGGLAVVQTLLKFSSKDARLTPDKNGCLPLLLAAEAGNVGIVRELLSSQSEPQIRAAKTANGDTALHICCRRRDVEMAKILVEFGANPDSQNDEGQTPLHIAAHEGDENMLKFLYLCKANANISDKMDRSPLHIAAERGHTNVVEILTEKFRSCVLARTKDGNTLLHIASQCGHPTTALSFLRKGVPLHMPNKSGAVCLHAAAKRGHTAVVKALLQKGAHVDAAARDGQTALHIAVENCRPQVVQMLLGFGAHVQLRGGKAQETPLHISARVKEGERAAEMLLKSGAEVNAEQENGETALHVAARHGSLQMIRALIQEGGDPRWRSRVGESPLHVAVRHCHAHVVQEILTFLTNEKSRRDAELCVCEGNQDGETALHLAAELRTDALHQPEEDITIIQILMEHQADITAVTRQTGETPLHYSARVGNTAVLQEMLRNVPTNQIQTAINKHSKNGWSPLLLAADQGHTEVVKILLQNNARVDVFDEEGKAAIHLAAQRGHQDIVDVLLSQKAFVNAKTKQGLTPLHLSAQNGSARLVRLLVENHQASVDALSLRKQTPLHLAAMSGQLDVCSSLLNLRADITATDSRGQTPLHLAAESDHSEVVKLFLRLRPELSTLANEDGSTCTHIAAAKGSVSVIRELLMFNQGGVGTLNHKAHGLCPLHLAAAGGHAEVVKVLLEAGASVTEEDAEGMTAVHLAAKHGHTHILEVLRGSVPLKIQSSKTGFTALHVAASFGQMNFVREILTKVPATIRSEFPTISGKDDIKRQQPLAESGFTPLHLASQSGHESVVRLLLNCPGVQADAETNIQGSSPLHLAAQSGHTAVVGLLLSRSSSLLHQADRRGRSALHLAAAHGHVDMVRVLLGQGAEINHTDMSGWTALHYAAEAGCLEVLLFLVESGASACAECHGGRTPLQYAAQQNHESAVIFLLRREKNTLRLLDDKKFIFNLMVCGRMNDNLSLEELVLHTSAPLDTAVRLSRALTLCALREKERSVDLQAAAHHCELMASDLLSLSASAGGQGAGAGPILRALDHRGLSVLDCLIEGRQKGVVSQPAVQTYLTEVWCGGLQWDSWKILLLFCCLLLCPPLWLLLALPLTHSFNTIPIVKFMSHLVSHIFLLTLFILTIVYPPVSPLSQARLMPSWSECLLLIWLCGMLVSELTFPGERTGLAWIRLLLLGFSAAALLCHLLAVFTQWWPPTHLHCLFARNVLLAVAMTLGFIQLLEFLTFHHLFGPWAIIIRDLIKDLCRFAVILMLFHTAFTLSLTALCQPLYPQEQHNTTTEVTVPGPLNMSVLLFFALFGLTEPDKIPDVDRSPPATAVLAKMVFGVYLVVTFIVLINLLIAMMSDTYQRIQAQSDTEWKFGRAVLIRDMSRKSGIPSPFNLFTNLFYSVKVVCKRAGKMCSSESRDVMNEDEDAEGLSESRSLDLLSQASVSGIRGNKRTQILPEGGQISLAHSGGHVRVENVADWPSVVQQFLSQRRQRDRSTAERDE

Cytochrome P450 3A4 [4] = molecular target: T2, Cytochrome P450 3A4 (Homo sapiens, UniProt P08684)
T2 sequence (P08684 whole entry): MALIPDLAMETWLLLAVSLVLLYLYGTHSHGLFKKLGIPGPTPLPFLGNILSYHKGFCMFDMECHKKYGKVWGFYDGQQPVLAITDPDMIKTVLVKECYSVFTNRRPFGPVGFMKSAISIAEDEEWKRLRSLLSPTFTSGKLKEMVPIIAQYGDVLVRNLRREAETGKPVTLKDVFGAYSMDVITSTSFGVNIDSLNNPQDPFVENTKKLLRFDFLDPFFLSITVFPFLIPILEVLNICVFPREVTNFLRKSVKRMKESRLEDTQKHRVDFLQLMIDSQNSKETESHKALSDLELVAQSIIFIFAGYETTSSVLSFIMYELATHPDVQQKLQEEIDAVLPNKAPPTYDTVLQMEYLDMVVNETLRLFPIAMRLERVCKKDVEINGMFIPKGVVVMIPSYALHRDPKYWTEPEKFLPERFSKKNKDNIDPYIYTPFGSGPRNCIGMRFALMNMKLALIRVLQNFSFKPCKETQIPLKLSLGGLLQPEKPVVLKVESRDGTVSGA

[5] = molecular target: Voltage-dependent T-type calcium channel subunit alpha-1H (Homo sapiens, UniProt O95180); format: functional;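 also: channel activity triggered by adding a high calcium stimulation buffer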
Sequence of Voltage-dependent T-type calcium channel subunit alpha-1H (O95180 whole entry): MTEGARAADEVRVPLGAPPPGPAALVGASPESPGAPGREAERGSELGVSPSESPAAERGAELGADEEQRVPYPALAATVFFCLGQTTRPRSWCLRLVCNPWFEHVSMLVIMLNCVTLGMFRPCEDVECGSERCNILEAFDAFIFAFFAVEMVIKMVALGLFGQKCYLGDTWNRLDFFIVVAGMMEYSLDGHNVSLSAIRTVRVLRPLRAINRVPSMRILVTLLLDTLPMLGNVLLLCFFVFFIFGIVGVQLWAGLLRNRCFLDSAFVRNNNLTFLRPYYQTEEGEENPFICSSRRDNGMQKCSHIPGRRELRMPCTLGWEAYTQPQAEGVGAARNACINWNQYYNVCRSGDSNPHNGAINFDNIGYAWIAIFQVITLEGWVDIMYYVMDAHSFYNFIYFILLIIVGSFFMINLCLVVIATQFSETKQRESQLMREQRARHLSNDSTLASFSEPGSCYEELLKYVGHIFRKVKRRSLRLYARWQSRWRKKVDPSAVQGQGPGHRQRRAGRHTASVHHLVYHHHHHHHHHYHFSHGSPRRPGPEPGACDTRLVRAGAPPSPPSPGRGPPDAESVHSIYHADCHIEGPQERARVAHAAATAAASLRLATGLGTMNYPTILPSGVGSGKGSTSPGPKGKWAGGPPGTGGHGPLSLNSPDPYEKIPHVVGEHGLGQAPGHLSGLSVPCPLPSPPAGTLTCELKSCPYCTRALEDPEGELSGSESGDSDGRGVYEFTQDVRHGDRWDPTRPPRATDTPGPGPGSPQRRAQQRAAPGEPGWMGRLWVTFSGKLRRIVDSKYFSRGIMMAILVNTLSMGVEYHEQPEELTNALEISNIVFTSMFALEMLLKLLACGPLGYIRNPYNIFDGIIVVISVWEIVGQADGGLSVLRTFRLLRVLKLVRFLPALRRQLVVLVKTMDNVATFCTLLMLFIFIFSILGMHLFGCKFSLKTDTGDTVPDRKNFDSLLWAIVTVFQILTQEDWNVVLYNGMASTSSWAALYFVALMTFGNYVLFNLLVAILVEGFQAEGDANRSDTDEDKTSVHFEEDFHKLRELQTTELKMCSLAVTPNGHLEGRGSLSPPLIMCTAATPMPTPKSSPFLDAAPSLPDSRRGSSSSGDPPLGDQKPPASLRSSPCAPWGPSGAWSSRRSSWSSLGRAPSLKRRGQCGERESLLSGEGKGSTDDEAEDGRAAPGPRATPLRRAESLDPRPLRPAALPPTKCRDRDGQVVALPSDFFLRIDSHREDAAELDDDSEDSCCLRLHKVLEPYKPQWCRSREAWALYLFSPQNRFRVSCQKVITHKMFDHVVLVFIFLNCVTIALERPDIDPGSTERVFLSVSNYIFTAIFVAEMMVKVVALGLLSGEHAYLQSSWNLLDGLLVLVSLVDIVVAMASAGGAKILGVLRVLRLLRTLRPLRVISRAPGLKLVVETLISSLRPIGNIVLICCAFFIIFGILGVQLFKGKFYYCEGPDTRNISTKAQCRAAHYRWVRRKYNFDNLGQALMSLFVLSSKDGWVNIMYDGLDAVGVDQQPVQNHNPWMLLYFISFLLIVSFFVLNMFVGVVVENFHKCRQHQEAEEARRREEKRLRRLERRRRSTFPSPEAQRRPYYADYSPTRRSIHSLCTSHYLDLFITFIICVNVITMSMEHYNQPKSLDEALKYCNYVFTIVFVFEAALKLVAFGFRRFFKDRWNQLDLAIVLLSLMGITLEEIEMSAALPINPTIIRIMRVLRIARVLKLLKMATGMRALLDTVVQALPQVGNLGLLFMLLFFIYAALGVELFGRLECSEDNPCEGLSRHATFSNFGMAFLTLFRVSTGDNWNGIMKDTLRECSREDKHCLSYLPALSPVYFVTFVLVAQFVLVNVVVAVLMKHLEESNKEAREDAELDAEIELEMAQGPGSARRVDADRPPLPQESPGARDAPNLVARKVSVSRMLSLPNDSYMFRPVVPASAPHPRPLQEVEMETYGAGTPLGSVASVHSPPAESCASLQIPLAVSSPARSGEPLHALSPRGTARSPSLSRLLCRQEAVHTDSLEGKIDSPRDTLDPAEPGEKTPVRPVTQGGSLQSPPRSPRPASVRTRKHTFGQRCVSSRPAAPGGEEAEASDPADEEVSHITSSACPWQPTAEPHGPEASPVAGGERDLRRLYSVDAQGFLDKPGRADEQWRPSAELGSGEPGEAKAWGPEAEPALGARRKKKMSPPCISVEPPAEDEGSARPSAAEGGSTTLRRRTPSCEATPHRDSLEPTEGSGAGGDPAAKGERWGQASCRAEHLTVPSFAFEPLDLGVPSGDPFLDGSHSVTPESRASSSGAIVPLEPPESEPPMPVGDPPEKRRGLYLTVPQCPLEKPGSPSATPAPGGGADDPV

INS1 = test: beta cell apoptosis inhibitors, cytokine rescue, dose response, luminescence, retest (AID 449756); format: functional, cell-based; conditions: Rattus norvegicus;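 also: cell death triggered by IL-1 beta plus TNF-alpha plus IFN-gamma mixture; protective hits raise ATP signal compared with cytokine alone wells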
Beta-galactosidase = Beta-galactosidase (Escherichia coli, UniProt Q8VNN2); test: beta-galactosidase enzyme inhibitors and activators, dose response, artefact control for CCR6 antagonist project, biochemical, E. coli enzyme, set 3 (AID 504712); format: functional
[6] = molecular target: T3, Heat shock factor protein 1 (Mus musculus, UniProt P38532); test: HSF1 potentiators in luciferase reporter cells, confirmation, cell-based, NIH3T3, luminescence, dose retest (AID 435004); format: functional;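 also: stress induced by proteasome inhibitor MG132 added 30 min after compound; luciferase reporter driven by HSF1 response element in NIH3T3 cells; actives raise luminescence as potentiators of the MG132 stress response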
T3 sequence (P38532 whole entry): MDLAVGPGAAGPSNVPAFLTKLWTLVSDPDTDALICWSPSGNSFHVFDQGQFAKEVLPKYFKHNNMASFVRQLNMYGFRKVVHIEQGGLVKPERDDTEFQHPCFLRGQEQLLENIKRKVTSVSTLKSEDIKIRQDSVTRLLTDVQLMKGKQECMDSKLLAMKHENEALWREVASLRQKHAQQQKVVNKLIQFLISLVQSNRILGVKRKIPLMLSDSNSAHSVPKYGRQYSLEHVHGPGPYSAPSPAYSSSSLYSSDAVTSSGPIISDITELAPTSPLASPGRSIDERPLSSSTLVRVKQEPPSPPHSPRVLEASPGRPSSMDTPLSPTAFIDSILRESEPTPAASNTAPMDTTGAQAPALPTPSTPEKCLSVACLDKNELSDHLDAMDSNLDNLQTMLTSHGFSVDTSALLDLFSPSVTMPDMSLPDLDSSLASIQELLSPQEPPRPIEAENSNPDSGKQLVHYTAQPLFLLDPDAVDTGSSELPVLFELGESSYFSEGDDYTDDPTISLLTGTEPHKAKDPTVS

[7] = molecular target: Neurotensin receptor type 1 (Homo sapiens, UniProt P30989); format: functional;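 also: Image-based confirmatory dose-response assay measuring agonist activity at NTR1; NTR1-expressing U2OS osteosarcoma cells imaged for beta-arrestin GFP spot formation; agonist potency where compounds increase beta-arrestin recruitment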
Sequence of Neurotensin receptor type 1 (P30989 whole entry): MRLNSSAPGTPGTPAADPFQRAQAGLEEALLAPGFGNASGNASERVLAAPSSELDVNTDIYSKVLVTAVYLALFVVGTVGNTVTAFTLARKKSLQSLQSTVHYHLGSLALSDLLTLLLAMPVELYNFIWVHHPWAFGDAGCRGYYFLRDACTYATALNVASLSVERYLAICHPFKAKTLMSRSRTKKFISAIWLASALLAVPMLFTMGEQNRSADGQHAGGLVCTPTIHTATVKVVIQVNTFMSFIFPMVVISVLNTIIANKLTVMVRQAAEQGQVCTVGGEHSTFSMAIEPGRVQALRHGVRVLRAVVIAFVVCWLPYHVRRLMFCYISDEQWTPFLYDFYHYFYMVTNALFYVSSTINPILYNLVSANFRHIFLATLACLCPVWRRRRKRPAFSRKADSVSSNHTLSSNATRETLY

Cytochrome P450 3A4 [8] = molecular target: T2, Cytochrome P450 3A4; conditions: Potency
[9] = molecular target: T4, Corticotropin-releasing factor receptor 2/Corticotropin-releasing factor-binding protein (Homo sapiens, UniProt P24387+Q13324); test: Dose Response confirmation of uHTS hits for small molecule antagonists of the CRF-binding protein and CRF-R2 receptor complex.; format: functional; conditions: read-out: IC50_Mean
T4 sequence (Q13324 whole entry): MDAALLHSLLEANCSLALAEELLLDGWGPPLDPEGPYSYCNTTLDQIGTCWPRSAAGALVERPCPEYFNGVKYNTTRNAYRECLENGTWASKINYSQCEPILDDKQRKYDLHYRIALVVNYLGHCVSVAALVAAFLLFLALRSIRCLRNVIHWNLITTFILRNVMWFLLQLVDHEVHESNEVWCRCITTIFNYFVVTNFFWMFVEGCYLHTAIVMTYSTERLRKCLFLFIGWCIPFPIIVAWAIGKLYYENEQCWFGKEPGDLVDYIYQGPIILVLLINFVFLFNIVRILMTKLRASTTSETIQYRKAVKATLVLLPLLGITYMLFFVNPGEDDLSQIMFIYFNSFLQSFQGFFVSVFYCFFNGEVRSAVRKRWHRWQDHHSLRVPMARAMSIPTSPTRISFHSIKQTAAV
T4 sequence (P24387 whole entry): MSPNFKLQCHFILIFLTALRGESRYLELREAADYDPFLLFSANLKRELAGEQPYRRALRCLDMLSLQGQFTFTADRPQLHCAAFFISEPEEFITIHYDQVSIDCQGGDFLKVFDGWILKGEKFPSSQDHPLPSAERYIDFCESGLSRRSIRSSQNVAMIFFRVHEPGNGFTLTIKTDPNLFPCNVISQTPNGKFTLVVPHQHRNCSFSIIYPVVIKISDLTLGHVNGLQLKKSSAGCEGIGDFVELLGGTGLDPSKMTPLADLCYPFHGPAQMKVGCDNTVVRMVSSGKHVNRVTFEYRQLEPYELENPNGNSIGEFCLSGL

[10] = inhibitors of intracellular T. cruzi replication, confirmation, NIH3T3 host cells, beta-gal luminescence (AID 2044); format: functional, cell-based;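 also: intracellular parasites grown in NIH/3T3 mouse fibroblasts as host cells; luminescent beta-galactosidase reporter signal from transgenic T. cruzi replicating inside host cells; inhibitors lower the luminescence signal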
cells [11] = test: cells
[12] = molecular target: T4, Corticotropin-releasing factor receptor 2/Corticotropin-releasing factor-binding protein; test: activators of CRF receptor 2 with binding protein – uHTS hits, confirmation (AID 602473); format: functional; conditions: read-out: EC50_Mean
[13] = cytotoxicity toward NIH3T3 fibroblasts, dose response, counter-screen, cell-based, ATP luminescence, mouse fibroblasts (AID 2010); format: functional;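 also: cells exposed to compound for about 90 hours before reading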
[14] = HepG2 cell cytotoxicity, dose response, cytotoxicity control for non-replicating M. tuberculosis project (AID 489018); format: functional; conditions: Mycobacterium tuberculosis
[15] = THP-1 cell cytotoxicity, dose response, cytotoxicity control for non-replicating M. tuberculosis project (AID 489025); format: functional
[16] = molecular target: T5, High affinity choline transporter 1 (Homo sapiens, UniProt Q9GZV3); test: CHT inhibitors, dose response, cell-based, 5-point CRC, membrane potential dye (AID 504840); format: functional
T5 sequence (Q9GZV3 whole entry): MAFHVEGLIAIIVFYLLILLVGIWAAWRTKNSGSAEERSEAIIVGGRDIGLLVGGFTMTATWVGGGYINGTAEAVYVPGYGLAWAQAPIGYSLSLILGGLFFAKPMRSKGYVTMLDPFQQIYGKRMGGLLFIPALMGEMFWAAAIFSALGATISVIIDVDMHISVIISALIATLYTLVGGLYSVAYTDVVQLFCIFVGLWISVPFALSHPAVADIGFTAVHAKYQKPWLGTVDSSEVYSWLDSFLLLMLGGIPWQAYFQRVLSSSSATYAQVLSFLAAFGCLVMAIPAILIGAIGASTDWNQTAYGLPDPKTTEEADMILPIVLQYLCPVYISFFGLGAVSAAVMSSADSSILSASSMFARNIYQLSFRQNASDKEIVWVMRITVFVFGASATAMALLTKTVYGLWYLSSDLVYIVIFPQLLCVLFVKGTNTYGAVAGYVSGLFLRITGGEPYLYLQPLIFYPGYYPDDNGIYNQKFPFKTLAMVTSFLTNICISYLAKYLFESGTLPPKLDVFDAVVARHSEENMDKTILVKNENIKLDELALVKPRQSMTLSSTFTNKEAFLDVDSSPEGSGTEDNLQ

cells [17] = format: functional
[18] = cytotoxicity in HEK-293T cells, dose response, cytotoxicity control for TCR NF-kB inhibitor project, luminescence, T-cell screen hits (AID 489026); format: functional, cell-based;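 also: cells exposed to compound about 14 hours before the viability readout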
Streptokinase A = molecular target: T6, Streptokinase A (Streptococcus pyogenes serotype M1, UniProt P10520); test: S. pyogenes streptokinase expression inhibitors, potency, dose response, plasminogen activation absorbance, OD405 (AID 1914); format: functional, Streptococcus pyogenes M1 GAS;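 also: secreted streptokinase activity via plasminogen activation per viability signal from cell pellet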
T6 sequence (P10520 whole entry): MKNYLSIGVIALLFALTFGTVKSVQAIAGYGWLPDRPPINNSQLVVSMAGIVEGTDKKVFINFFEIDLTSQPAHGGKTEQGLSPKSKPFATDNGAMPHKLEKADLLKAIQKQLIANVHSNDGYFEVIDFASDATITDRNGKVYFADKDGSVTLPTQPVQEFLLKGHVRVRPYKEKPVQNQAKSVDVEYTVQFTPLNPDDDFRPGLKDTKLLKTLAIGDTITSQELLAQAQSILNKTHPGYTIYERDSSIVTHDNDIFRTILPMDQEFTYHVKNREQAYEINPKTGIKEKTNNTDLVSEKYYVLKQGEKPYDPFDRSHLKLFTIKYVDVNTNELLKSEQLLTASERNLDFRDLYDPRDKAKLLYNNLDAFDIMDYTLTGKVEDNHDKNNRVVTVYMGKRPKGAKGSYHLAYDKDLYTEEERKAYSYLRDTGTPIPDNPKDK

[19] = system: Streptococcus sp. 'group A'; test: growth inhibition of control SK(-) GAS strain, dose response, counter-screen for streptokinase expression inhibitor project, luminescence, kanamycin, BacTiterGlo, confirmation (AID 1900); format: functional, organism-based
Streptococcus = test: Group A Streptococcus viability loss, dose response, counter-screen for streptokinase expression inhibitor project, luminescence, BacTiterGlo (AID 1915); format: functional, organism-based;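 also: potency for reduction of bacterial viability or growth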

CC(C)c1ccc(C2=C(O)C(=O)c3ccccc3C2=O)cc1
CC50 [1]: 16.5 µM (active)
EC50 [2]: 67.1 µM (active)
EC50 [3]: 1.11 µM (active)

COc1cc(C)nc(N(Cc2ccccc2)S(=O)(=O)c2ccc(C)cc2)n1
EC50 (Mucolipin-3): 6.93 µM (active)
EC50 (Ion channel NompC): > 29.9 µM (not active)

C=CCN(CC=C)CC(O)Cn1c2ccccc2c2ccccc21 (stereo not given)
AC50 (Cytochrome P450 3A4 [4]): 28.2 µM (inconclusive)
EC50 [5]: 9.06 µM (active)
AC50 (INS1): > 120 µM (inactive)

CCc1ccccc1NC(=O)c1cc2sccc2n1C
EC50 [5]: 12 µM (active)

CCOC(=O)c1c(N2C(=O)C=CC2=O)sc(C)c1C
IC50 (Beta-galactosidase): > 66.6 µM (inactive)
EC50 [6]: 4.22 µM (active)

C=CCOc1ccc2c(c1)c(S(=O)(=O)c1ccc(C)cc1)cn2COC
EC50 (Mucolipin-3): 1.16 µM (active)
EC50 (Ion channel NompC): > 29.9 µM (not active)

CCOc1cc(/C=C2/C(=O)ON=C2C)ccc1OCc1ccccc1
EC50 [7]: 23 µM (inactive)

Cc1ccc(S(=O)(=O)N(C)CC(=O)ONC(=N)c2cccc([N+](=O)[O-])c2)cc1
EC50 (Mucolipin-3): 12.1 µM (not active)
EC50 (Ion channel NompC): > 29.9 µM (not active)

CNC(=O)[C@H](C)/C=C(\c1cccnc1)C(NC(=O)OCc1ccccc1)c1ccc(C(=O)OC)cc1 (stereo not given in full)
AC50 (Cytochrome P450 3A4 [8]): 20 µM (inconclusive)

CCN(CC)CCN(C(=O)CN1C(=O)c2ccccc2C1=O)c1nc2cc3c(cc2s1)OCO3
IC50 [9]: > 47.1 µM (inactive)
EC50 [10]: < 0.1 µM (active)
EC50 (cells [11]): 0.349 µM (active)
EC50 [12]: > 53 µM (inactive)
EC50 [13]: > 60 µM (not active)

Cc1ccc2c(c1)C(O)(c1c(C)[nH]c3ccccc13)C(=O)N2 (stereo not given)
EC50 [5]: 8.82 µM (active)

Cc1cc(Br)ccc1OCCCCN1CCCCC1
EC50 [10]: 0.75 µM (active)
CC50 [14]: > 20 µM (active)
EC50 [13]: > 60 µM (not active)
CC50 [15]: > 40 µM (active)

COc1c2c(cc3c1OCO3)C13C=CC(OC)CC1N(C2)CC3O (stereo not given)
AC50 (Cytochrome P450 3A4 [8]): 39.8 µM (inconclusive)

C=C1C(=O)OC2C1CC/C(C)=C/CCC1(C)OC21 (stereo not given)
AC50 (Cytochrome P450 3A4 [8]): 25.1 µM (inconclusive)

Cc1cccc(OCC(O)Cn2c(=N)n(Cc3ccccc3)c3ccccc32)c1 (stereo not given)
IC50 [16]: 6.92 µM (active)
CC50 [14]: > 20 µM (active)
CC50 [15]: 23.3 µM (active)

C[C@H](NC(=O)c1[nH]cnc1C(=O)NCc1ccc(CNC(=O)OC(C)(C)C)cc1)C(=O)OCc1ccccc1
EC50 [7]: 19.4 µM (active)

COc1cc(C(=O)N/N=C/c2cc([N+](=O)[O-])cs2)cc(OC)c1OC
IC50 (cells [17]): 0.87 µM (active)
CC50 [1]: 5.03 µM (active)
IC50 [18]: > 80 µM (inactive)
CC50 [14]: > 20 µM (active)
CC50 [15]: 0.724 µM (active)

O=[N+]([O-])c1cc(Cl)cc(/C=N/Nc2nc3ccccc3s2)c1O
IC50 (cells [17]): 2.82 µM (active)
EC50 (Streptokinase A): > 150 µM (not active)
CC50 [1]: 10.4 µM (active)
EC50 [19]: 2.17 µM (active)
CC50 [14]: 16.4 µM (active)
CC50 [15]: 10 µM (active)
EC50 (Streptococcus): 7.64 µM (active)
